We go through one compound from US4092426A, “Novel aminobenzoic acid derivatives, process for preparing the same and pharmaceutical composition containing the same” (Chugai Seiyaku Kabushiki Kaisha, priority 1975, dated 1978).

Structures can show the parent of a compound that is named as a salt.

For experiment [1], the system named is autoimmune glomerulonephritis. Kind of experiment: Activity for Treating a Model of Autoimmune Disease (glomerulonephritis). Format: in vivo, New Zealand Black/White F1 female mice. As for the experimental part:
Pharmacological activity of the test compound, disodium salt of N-2'-carboxyphenyl-4-chloroanthranilic acid, was studied by the use of glomerulonephritis of New Zealand Black/White F1 female mice as a model of autoimmune disease. The test animals were divided into groups of 8 members each and orally administered with the test compound in a dose of 5 mg/kg or 50 mg/kg once a day from 8 week old. Development of the disease was evaluated by measuring the level of protein in urine with Combistix test paper (Ames Co., Inc.). It was confirmed that the evaluation by the test paper closely corresponds to the results of a quantitative analysis by a sulfosalicyclic acid method. Changes in average level of protein in urine each of the groups during a period of from 20 weeks old to 35 weeks old of the mice are shown in FIG. 2. […] Further, 3 mice among 8 mice of the control group were died from glomerulonephritis during the period of from 35 to 40 weeks from their birth, while there was no death in the groups to which the test compound had been administered.

Experiment [2] relates to Sarcoma-180. As to the kind of experiment: Antitumor Activity on Transplanted Tumor Cells (Sarcoma-180). It counts as in vivo, ddY strain male mice. Conditions: 10 mg/kg oral once a day for 11 days; tumor weight 14 days after transplantation. From the text: For test animals, ddY strain male mice weighing 20 - 25 g were used dividing into groups of 9 or 10 members each. Each of the mice was subjected to transplantation of 10^6 tumor cells (Sarcoma-180) at a portion of the root of a hind paw by subcutaneous injection to induce solid tumor. The test compound, disodium salt of N-2'-carboxyphenyl-4-chloroanthranilic acid, was orally administered once a day for 11 days from the day that transplantation was made. Fourteen days after the transplantation, the grown tumor tissue was taken out from each mouse and its wet weight was measured to evaluate antitumor activity of the test compound. […] For the reasons stated above, it is assumed that the activity of the test compound is based on host-mediated antitumor activity.

Experiment [3] has as its system plaque forming cells (PFC) in the spleen. Kind of experiment: Activity for Recovering Immune Depletion by cortisone: plaque forming cells (PFC) in the spleen. Format: in vivo, IV CS strain male mice. Conditions: 10 mg/kg oral, cortisone-treated. The procedure: (§1) As test animals, IV CS strain male mice (5 week old) were used by dividing them into groups of 5 members each. Each mouse was intraperitoneally administered with cortisone in a dose of 60 mg/kg once a day for 5 days. Three days after the first administration, the sensitization with an antigen, sheep red blood cell (SRBC), was made by injecting the antigen into the mouse through the tail vein. Each mouse was orally administered with the test compound, disodium salt of N-2'-carboxyphenyl-4-chloroanthranilic acid, a day after the sensitization. Five days after the sensitization, the number of plaque forming cells (PFC) in the spleen was measured in a usual manner.

For experiment [4], the system named is antibody in blood. As to the kind of experiment: Titer of antibody in blood of cortisone-treated mice (hemolysing method). It counts as in vivo, IV CS strain male mice. The procedure:
as §1
* Titer of antibody in blood is indicated by a dilution degree of 50%

On to `O=C(O)c1ccccc1Nc1cc(Cl)ccc1C(=O)O` [disodium salt of N-2'-carboxyphenyl-4-chloroanthranilic acid], for which the “suppression of autoimmune glomerulonephritis” value in experiment [1] (5 or 50 mg/kg oral once a day) was “significantly shows pharmacological activities to suppress autoimmune glomerulonephritis”. The “level of protein in urine” value in experiment [1] (5 or 50 mg/kg oral once a day, 20 to 35 weeks old, control rose after around 27 weeks) was “maintained a relatively steady level”. For the same compound, the death from glomerulonephritis entry in experiment [1] (5 or 50 mg/kg oral, 35 to 40 weeks from birth, control 3 among 8 died) is “no death”. Further, the “suppression of tumor growth (Sarcoma-180)” value in experiment [2] is listed as “significant activity for suppression of tumor growth”. Also, the “number of PFC” value in experiment [3] is listed as “significantly increased”. The entries for the “Titer of Antibody (dilution degree of 50% hemolysis)” value in experiment [4] (Cortisone + Test Compound (10 mg/kg)) and in experiment [4] (Cortisone + Test Compound (50 mg/kg)) were 10^10 and 10^6, respectively.
